Reference: paper PMC10692721, “Drug discovery for heart failure targeting myosin-binding protein C” (The Journal of Biological Chemistry, 2023)
Where two headings read alike, the source gives them in different places.

Legend:
[1] = system: TMR-fC1-C2 (C1-C2 of fast skeletal MyBP-C); assay: FLT-TMR concentration-response assay, fC1-C2; assay type: binding; settings: for effect on FLT of TMR-fC1-C2 (in words): concentration-response, no actin; for cC0-C2/fC1-C2 (ratio of FLT changes) / fC1-C2 FLT change (% change from DMSO, FLT of TMR-MyBP-C): 60 μM compound; for difference in effect on TMR FLT between unphosphorylated TMR-cC0-C2 and TMR-fC1-C2: from Table 3
Summary of the method: (§1)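 Hits tested at eight concentrations (0.5–100 μM) and read on a high-throughput fluorescence lifetime plate reader. Hill fits applied only under certain conditions.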

[2] = system: FMAL-actin plus TMR-cC0-C2; assay: Selleck library HTS, 473 nm excitation (FLT of FMAL-actin with TMR-cC0-C2, FLT-FRET); assay type: binding, human; settings: for 473-nm Δτ, Repeat 1 / 473-nm Δτ, Repeat 2: initial screen, 30 μM compound; for 473-nm z-score (based on avg Δτ): robust z-score, hit threshold ±4, 30 μM compound
Summary of the method: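 Donor fluorescence lifetime was then recorded. Waveforms were fit to a single exponential, and ΔFLT was obtained after a moving-median plate-gradient correction (half-row window), rescaled by the median DMSO lifetime.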

[3] = system: FMAL-actin/TMR-fC1-C2 interaction; assay: FLT-FRET concentration-response assay, FMAL-actin plus TMR-fC1-C2; assay type: binding
Protocol: (§2) Compounds identified as initial hits were further examined to determine the concentration–response curves for seven conditions ([1]): FMAL-actin alone identified actin-binding compounds that alter the FLT of FMAL-actin ([2]).
(§3) Fluorescence lifetime (FLT) measurements were acquired using a high-throughput FLT plate reader (Fluorescence Innovations, Inc) ([14], [27]), provided by Photonic Pharma LLC. […] The observed waveforms were analyzed as described previously ([15], [28]).
(§4) The primary hits were dissolved in DMSO to make a 10 mM stock solution, which was serially diluted in 96-well mother plates. Hits were screened at eight concentrations (0.5–100 μM). […] Compounds (1 μl) were transferred from the mother plates into 384-well plates using a Mosquito HV liquid handler (TTP Labtech Ltd, Hertfordshire, UK). The same procedure of dispensing as for the pilot screening was applied in the concentration-response assays. Concentration dependence of the FLT-FRET (E/EDMSO) or FLT-TMR (Δτ) change data was fit to a Hill equation only under certain conditions to help guide the eye (Fig. 4).

TMR-cC0-C2 = assay: Selleck library HTS, 532 nm excitation (FLT of TMR-cC0-C2 in presence of FMAL-actin); assay type: binding, human; settings: for 532-nm Δτ, Repeat 1 / 532-nm Δτ, Repeat 2: initial screen, 30 μM compound; for 532-nm z-score (based on avg Δτ): robust z-score, hit threshold ±4, 30 μM compound
[4] = system: TMR-cC0-C2 (C0-C2 fragment of human cMyBP-C); assay: FLT-TMR concentration-response assay (FLT of TMR on cC0-C2, no actin); assay type: binding; settings: for effect on FLT of TMR-cC0-C2 (in words): concentration-response, no actin; for cC0-C2/cC0-C2#P (ratio of FLT changes) / cC0-C2 FLT change (% change from DMSO, FLT of TMR-MyBP-C): 60 μM compound
Summary of the method: as §1

[5] = system: FMAL-actin/PKA-phosphorylated TMR-cC0-C2 interaction; assay: FLT-FRET concentration-response assay, FMAL-actin plus PKA-phosphorylated TMR-cC0-C2; assay type: binding, human
Protocol: as §2, §3, §4

[6] = system: FMAL-actin/TMR-cC0-C2 interaction; assay: FLT-FRET concentration-response assay, FMAL-actin plus TMR-cC0-C2; assay type: binding, human; settings: for specificity of FLT-FRET effect for unphosphorylated over phosphorylated cC0-C2: effect on cC0-C2 compared to phosphorylated cC0-C2 (Tables 1 and 2); for effect on FLT-FRET / binding between FMAL-actin and TMR-cC0-C2 (in words): unphosphorylated cC0-C2
Summary of the method: as §1

[7] = system: PKA-phosphorylated TMR-cC0-C2 (cC0-C2#P); assay: FLT-TMR concentration-response assay, PKA-phosphorylated cC0-C2; assay type: binding, human; settings: for cC0-C2#P FLT change (% change from DMSO, FLT of TMR-MyBP-C): 60 μM compound; for effect on FLT of PKA-phosphorylated TMR-cC0-C2 (in words): concentration-response, no actin
Summary of the method: as §1

| Structure (SMILES) | effect on FLT-FRET / binding between FMAL-actin and TMR-fC1-C2 (in words) [3] | effect on FLT-FRET / binding between FMAL-actin and PKA-phosphorylated TMR-cC0-C2 (in words) [5] | effect on FLT-FRET / binding between FMAL-actin and TMR-cC0-C2 (in words) [6] | effect on FLT of TMR-fC1-C2 (in words) [1] | 473-nm Δτ, Repeat 1 [2] [ns] | 473-nm Δτ, Repeat 2 [2] [ns] | 473-nm z-score (based on avg Δτ) [2] | 532-nm Δτ, Repeat 1 (TMR-cC0-C2) [ns] | 532-nm Δτ, Repeat 2 (TMR-cC0-C2) [ns] | 532-nm z-score (based on avg Δτ) (TMR-cC0-C2) | effect on FLT of TMR-cC0-C2 (in words) [4] | specificity of FLT-FRET effect for unphosphorylated over phosphorylated cC0-C2 [6] | cC0-C2/fC1-C2 (ratio of FLT changes) [1] | fC1-C2 FLT change (% change from DMSO, FLT of TMR-MyBP-C) [1] [%] | difference in effect on TMR FLT between unphosphorylated TMR-cC0-C2 and TMR-fC1-C2 [1] [fold] | cC0-C2#P FLT change (% change from DMSO, FLT of TMR-MyBP-C) [7] [%] | effect on FLT of PKA-phosphorylated TMR-cC0-C2 (in words) [7] | cC0-C2/cC0-C2#P (ratio of FLT changes) [4] | cC0-C2 FLT change (% change from DMSO, FLT of TMR-MyBP-C) [4] [%] | further results |
| --- | --- | --- | --- | --- | --- | --- | --- | --- | --- | --- | --- | --- | --- | --- | --- | --- | --- | --- | --- | --- |
| CCC(C)(Oc1ccc(C2(c3ccc(OC(C)(CC)C(=O)O)cc3)CCCCC2)cc1)C(=O)O (stereo not drawn) [Clinofibrate] | decreased | decreased | decreased | do not affect | 0.090 | 0.075 | 4.65 | 0.006 | 0.016 | 0.70 | do not affect | stronger reduction of FRET with non-phosphorylated than phosphorylated |  |  |  |  |  |  |  |  |
| COC(=O)N[C@H](C(=O)N1CCC[C@H]1c1nc(-c2ccc3c(c2)O[C@@H](c2ccccc2)n2c-3cc3cc(-c4c[nH]c([C@@H]5CCCN5C(=O)[C@@H](NC(=O)OC)C(C)C)n4)ccc32)c[nH]1)C(C)C [Elbasvir] | decreased | decreased | decreased | do not affect | 0.142 | 0.080 | 6.24 | -0.002 | 0.011 | 0.31 | do not affect | 5 fold |  |  |  |  |  |  |  |  |
| CCC(=O)O[C@H]1[C@H](O[C@@H]2[C@@H](C)[C@H](O[C@H]3C[C@@](C)(OC)[C@@H](O)[C@H](C)O3)[C@@H](C)C(=O)O[C@H](CC)[C@@](C)(O)[C@H](O)[C@@H](C)C(=O)[C@H](C)C[C@@]2(C)O)O[C@H](C)C[C@@H]1N(C)C [Erythromycin estolate] | decreased | decreased | decreased | decreases | 0.149 | 0.101 | 7.01 | 0.002 | -0.031 | -0.86 | affect |  | 6.7 | −2.1 | 6.7 | −2.4 | decreases | 5.9 | −14.1 | effect on FLT-FRET / binding between FMAL-actin and TMR-fC1-C2 (in words) ([3]; listed as Erthromycin estolate): biphasic effect; effect on FLT of TMR-cC0-C2 (in words) ([4]; listed as Erthromycin estolate): decreases; difference in effect on TMR FLT between unphosphorylated and phosphorylated TMR-cC0-C2 ([4]; from Table 3): 5.9 fold; effect on FLT-FRET / binding between FMAL-actin and PKA-phosphorylated TMR-cC0-C2 (in words) ([5]; listed as Erthromycin estolate): biphasic effect; effect on FLT-FRET / binding between FMAL-actin and TMR-cC0-C2 (in words) ([6]; listed as Erthromycin estolate): biphasic effect |
| Clc1ccc(C(Cn2ccnc2)OCc2ccc(Sc3ccccc3)cc2)c(Cl)c1 (stereo not drawn) [Fenticonazole nitrate] | does not have any effect | increases | does not have any effect | does not affect | -0.069 | -0.104 | -4.80 | -0.011 | -0.035 | -1.35 | slightly decreases |  | 11.8 | 0.4 | 11.8 | −6.0 | slightly decreases | 0.8 | −4.7 | preference for increasing the binding of phosphorylated over unphosphorylated cC0-C2 (FLT-FRET) [5]: 5 fold |

Further lines, with some results ahead:

| effect on FLT-FRET / binding between FMAL-actin and TMR-fC1-C2 (in words) [3] | effect on FLT-FRET / binding between FMAL-actin and PKA-phosphorylated TMR-cC0-C2 (in words) [5] | effect on FLT-FRET / binding between FMAL-actin and TMR-cC0-C2 (in words) [6] | Structure (SMILES) | effect on FLT of TMR-fC1-C2 (in words) [1] | 473-nm Δτ, Repeat 1 [2] [ns] | 473-nm Δτ, Repeat 2 [2] [ns] | 473-nm z-score (based on avg Δτ) [2] | 532-nm Δτ, Repeat 1 (TMR-cC0-C2) [ns] | 532-nm Δτ, Repeat 2 (TMR-cC0-C2) [ns] | 532-nm z-score (based on avg Δτ) (TMR-cC0-C2) | effect on FLT of TMR-cC0-C2 (in words) [4] | specificity of FLT-FRET effect for unphosphorylated over phosphorylated cC0-C2 [6] | cC0-C2/fC1-C2 (ratio of FLT changes) [1] | fC1-C2 FLT change (% change from DMSO, FLT of TMR-MyBP-C) [1] [%] | difference in effect on TMR FLT between unphosphorylated TMR-cC0-C2 and TMR-fC1-C2 [1] [fold] | cC0-C2#P FLT change (% change from DMSO, FLT of TMR-MyBP-C) [7] [%] | effect on FLT of PKA-phosphorylated TMR-cC0-C2 (in words) [7] | cC0-C2/cC0-C2#P (ratio of FLT changes) [4] | cC0-C2 FLT change (% change from DMSO, FLT of TMR-MyBP-C) [4] [%] | further results |
| --- | --- | --- | --- | --- | --- | --- | --- | --- | --- | --- | --- | --- | --- | --- | --- | --- | --- | --- | --- | --- |
| decreased | decreased | decreased | CCN(C(=O)c1c(O)c2c(Cl)cccc2n(C)c1=O)c1ccccc1 [Laquinimod] | do not affect | 0.109 | 0.071 | 5.08 | -0.017 | -0.016 | -0.99 | do not affect | stronger reduction of FRET with non-phosphorylated than phosphorylated |  |  |  |  |  |  |  |  |
| decreased | decreased | decreased | CC(C(=O)O)c1ccc2c(c1)CC(=O)c1ccccc1S2 (stereo not drawn) [Zaltoprofen] | do not affect | 0.113 | 0.083 | 5.52 | -0.015 | 0.015 | 0.04 | do not affect | stronger reduction of FRET with non-phosphorylated than phosphorylated |  |  |  |  |  |  |  |  |
